Reference: PubChem BioAssay AID977607 (Broad Institute, 2014)
Calls of active or inactive are those of the source.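 The calls were made as follows: active = curve reaches 40% activation over neutral controls at an AC40 no higher than the top valid tested concentration; inconclusive = no clear call, values can overlap the other calls; inactive = signal moving opposite to the expected increase, and the rest.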

System: INS-1E GLuc insulin secretion reporter, luminescence, 2-3 h
Assay: GLuc-reported insulin release enhancers, glucose-stimulated beta cells – cell-based, INS-1E, Gaussia luciferase, luminescence, cherry-pick, set 2, dose response (AID 977607)

Structure (SMILES) | AC40
CCC(=O)Nc1ccc(Cl)c(NC(=S)NC(=O)COc2ccc(Cl)cc2)c1 | 7.71 µM
CCOC(=O)c1csc(-c2ccc(OC)c(OC)c2)n1 | 2.17 µM
COc1cc2c(cc1OC)C1=C(C#N)CCC(=NC(=O)c3ccco3)N1CC2 | 7.7 µM
Cc1ccc(CN(C(=O)c2cccs2)C2CCS(=O)(=O)C2)cc1 (stereo not drawn) | 19.7 µM
CC(C)CC#Cc1ccc2c(c1)O[C@@H](CN(C)Cc1ccccc1)[C@H](C)CN([C@H](C)CO)S2(=O)=O | 9.77 µM
COc1ccc(/C=N/NC(=O)c2ccc(COc3ccccc3Cl)o2)c(OC)c1C | 5.44 µM
Cc1cc(NC(=O)c2ccccc2F)n(-c2nc3ccccc3[nH]2)n1 | 5.86 µM
C/C(=N\NC(=O)c1cccc(Br)c1)c1ccc(Br)cc1 | 16.6 µM
CCOC(=O)Cc1nn(Cc2ccccc2)c(=O)c2ccccc12 | 1.61 µM
N/C(=N\OC(=O)COc1ccc(Cl)cc1Cl)c1cccnc1 | 29.8 µM
COc1ccc(/C=N/N(C(C)=O)c2nc(-c3ccc(C)cc3)cs2)cc1 | 0.895 µM
COC(=O)c1ccc2c(=O)[nH]c(CSc3nc(-c4ccc(F)cc4)cs3)nc2c1 | 5.86 µM
CCN=C1NC(c2ccc(C(F)(F)F)cc2)C(C(=O)OC)=C(C)N1Cc1cccc(C(F)(F)F)c1 (stereo not drawn) | 14.3 µM
COc1cc(NC(=O)c2cccc(C)c2)ccc1NC(=O)c1cc2ccccc2o1 | 3.24 µM
CC(C)(C)C1CCc2c(sc(NC(=O)c3cccs3)c2C(N)=O)C1 (stereo not drawn) | 18.3 µM
Clc1ccc(-c2ccnc(Oc3ccc4ccccc4c3)n2)cc1 | 8.45 µM
CCC(C)c1ccccc1OCCCN(C)Cc1ccccc1 (stereo not drawn) | 7.97 µM
O=C(Nc1ccccc1)c1nnsc1S(=O)(=O)c1ccc(Cl)cc1 | 1.21 µM
N#Cc1c(N)n(C2CCCCC2)c2nc3ccccc3nc12 | 18.9 µM
COC(=O)C1=C(C)N(C)C(=NCc2cccc(C(F)(F)F)c2)NC1c1ccc(C(F)(F)F)cc1 (stereo not drawn) | 18.1 µM
O=C(COc1ccccc1)Nc1sc2c(c1C(=O)NCc1cccnc1)CCCC2 | 13.1 µM
NC(N)=N/N=C/c1ccc(N(c2ccccc2)c2ccccc2)cc1 | 5.68 µM

Structure (SMILES) | AC40
O=C(Cn1ncc(Cl)c(Cl)c1=O)Nc1ccc2c(c1)OCO2 | 12 µM
COc1ccc(-c2nnc3sc(-c4cccs4)nn23)cc1OC | 22 µM
NC(=O)COC(=O)c1ccccc1Oc1ccccc1 | 6.24 µM
COc1cc2c(cc1OC)-c1cc(Nc3ccc(C)cc3)nc(=O)n1CC2 | 11.8 µM
N#Cc1cccc(-c2ccc([C@@H]3[C@@H]4CN(S(=O)(=O)c5ccc(-c6ccccc6)cc5)C[C@H]3N4)cc2)c1 | 3.49 µM
O=c1c(C=Nc2ccc(Oc3ccccc3)cc2)c[nH]n1-c1cccc(Cl)n1 | 6.27 µM
Fc1ccc(/C=N/c2c(-c3ccc(F)cc3)nc3n2CCS3)cc1 | 6.62 µM
N#Cc1cccc(Oc2ccc(-c3cnc4ccccc4n3)cc2)c1C#N | 13.1 µM
CC(C)n1cc(/C(N)=N/O)c(=O)n(Cc2ccccc2)c1=O | 9.39 µM
O=C(c1ccc(F)cc1)N1C[C@@H]2N[C@H](C1)C2c1ccc(/C=C/c2ccccc2)cc1 (stereo partly drawn) | 6.56 µM
Cc1ccc(-c2cc(C(=O)NCc3cnn(C)c3)c3cc(Br)ccc3n2)cc1 | 3.7 µM
CCOC(=O)c1c(NC(=O)Cn2nc(C(F)(F)F)cc2C)sc(C)c1C | 9.34 µM
CC(C)(c1ccccc1)c1ccc(OCC(O)CNC2CCN(Cc3ccccc3)CC2)cc1 (stereo not drawn) | 11.8 µM
O[C@H]1C[C@H](c2ccccc2)N(CC2CCCCC2)C[C@@H]1n1cc(C2CC2)nn1 | 11.5 µM
COc1cc2c(cc1OC)-c1cc(N3CCc4ccccc43)nc(=O)n1CC2 | 15.6 µM
O=C(NCCC1=CCCCC1)C(=O)NCC(c1ccco1)N1CCN(c2ccccc2)CC1 (stereo not drawn) | 6.33 µM
CC(C)(C)OC(=O)N[C@@H](Cc1ccccc1)c1nnc(S(=O)(=O)Cc2ccccc2)o1 | 3.69 µM
O=C(N/N=C/c1ccco1)c1cc(-c2ccc3ccccc3c2)n[nH]1 | 4.19 µM
Cc1ccccc1C(=O)Nc1nnc(-c2ccc(C(C)(C)C)cc2)s1 | 18.3 µM
COc1ccc(CCNC(=O)NS(=O)(=O)c2ccc(C)cc2)cc1OC | > 35 µM (inactive)
CC1(C(=O)NCc2cccc3ccccc23)CCN1Cc1ccc(OC(F)(F)F)cc1 (stereo not drawn) | 14.3 µM
c1ccc(Cn2nnc3c(N4CCc5ccccc54)ncnc32)cc1 | 5.06 µM

Structure (SMILES) | AC40
COc1ccc(OC)c(-c2nnc3n2N=C(c2ccc(OC)c(OC)c2)CS3)c1 | 0.564 µM
O=C1Nc2cnc(Cl)nc2Nc2ccccc21 | > 35 µM (inactive)
COc1ccc(S(=O)(=O)N2CCc3ccccc3C2)cc1OC | 28.9 µM
COc1ccc(CN(C)C(=O)Cn2cc(C)c(=O)[nH]c2=O)cc1OC | > 35 µM (inactive)
CCCCCCn1c(N(CC)CC)nc2c1c(=O)[nH]c(=O)n2C | 23.8 µM
CCCCCCn1c(-c2cccs2)n[nH]c1=S | > 35 µM (inactive)
CCCCc1c(-c2ccccc2OC)ncn1C(C)c1ccc(Cl)cc1 (stereo not drawn) | 12.6 µM
CS(=O)(=O)c1ccc2nc(NC(=O)Nc3ccc(Cl)c(Cl)c3)sc2c1 | 4.78 µM
Cc1cccc(S(=O)(=O)N2C[C@@H]3N[C@H](C2)C3c2ccc(-c3ccccc3F)cc2)c1 (stereo partly drawn) | 5.72 µM
CCn1nc(C(=O)Nc2ccc3nc(C)sc3c2)c2ccccc2c1=O | 25.1 µM
Cc1nc(NC(=O)c2cccc(-c3cc4ccccc4oc3=O)c2)ccc1Br | 12.7 µM
CCn1c(O)c(/C=N/N=C/c2ccc(OC)cc2)c2cc(C3=NNC(=O)CC3)ccc21 | 4.21 µM
COc1ccc(CCN(C)C(=O)c2oc3ccccc3c2C)cc1OC | 7.06 µM
CN(C)CCNC(=O)c1cccc(-c2cc(NC=O)c3ncc(-c4cccc(C(F)(F)F)c4)n3c2)c1 | 24.4 µM
Cc1c(O)cnc2nn(-c3ccccc3)c(=N)n12 | > 35 µM (inactive)
COC(=O)C1=C(C)N(Cc2cccc(C(F)(F)F)c2)C(=NCc2ccc(OC)cc2)NC1c1cccc(Cl)c1 (stereo not drawn) | 9.96 µM
COc1ccc(C)cc1NCc1cc(=O)oc2cc(-c3ccccc3)c(O)cc12 | 15.8 µM
CCc1ccc(OCC(=O)NC(=S)Nc2ccc(F)cc2)c(Br)c1 | 10 µM
CCc1nc(N)nc2c1C(=O)CC(C)(C)C2 | > 35 µM (inactive)
OC(c1ccccc1)(c1ccccc1)C1CCN(CCCOc2ccc(-c3ccsc3)cc2)CC1 | 8.81 µM
CCCCCCN1C[C@H](n2cc(C3CC3)nn2)[C@@H](O)C[C@@H]1c1ccc(C)cc1 | 7.33 µM
Cc1cc(C)cc(NC(=O)Cc2ccc(-n3cccc3)cc2)c1 | 8.29 µM

Structure (SMILES) | AC40
COc1ccc(N2CCN(c3ccc(NC(=O)C4CCCCC4)cc3C#N)CC2)cc1 | 2.8 µM
CC(C)CC#Cc1ccc2c(c1)O[C@@H](CN(C)Cc1ccc(F)cc1)[C@H](C)CN([C@H](C)CO)S2(=O)=O | 10.4 µM
COc1ccc(C(=O)Nc2ccc3c(c2)C(=O)c2ccccc2C3=O)cc1OC | 24.1 µM
N#Cc1nccnc1S(=O)(=O)c1cccs1 | 0.467 µM
CC(=O)N(/N=C/c1cccc(C)c1)c1nc(-c2ccc(Br)cc2)cs1 | 5.72 µM
O=c1[nH][nH]c2c1C(c1ccc(Cl)c(Cl)c1)OC(CCc1ccccc1)C2 (stereo not drawn) | 16.9 µM
CCn1nc(C)c(NC(=O)c2cnn3c(C(F)F)cc(-c4ccccc4)nc23)c1C | 3.84 µM
C/C(Cl)=C/CSc1nc2c(c(=O)[nH]c(=O)n2C)n1C(C)C | 20 µM
CN(C)CCOc1ccc(-c2c(-c3ccccc3)sc3ccccc23)cc1 | 2.75 µM
Cc1ccccc1NC(=O)c1ccc(OCc2c(C)noc2C)cc1 | > 35 µM (inactive)
CCCNC(=O)c1nnsc1S(=O)(=O)c1ccc(Cl)cc1 | 1.63 µM
CCCCc1c(-c2ccc(F)cc2F)ncn1CCc1ccccc1OC | 8.96 µM
CCn1cc(S(=O)(=O)NCCc2ccc(OC)c(OC)c2)cn1 | 3.87 µM
OC[C@@H]1[C@@H](c2ccc(C#CC3CCCC3)cc2)[C@@H]2CN(CCC(F)(F)F)CCCCN12 | 6.02 µM
OC(c1ccccc1)(c1ccccc1)C1CCN(CCCOc2ccc3c(c2)CCCC3)CC1 | 6.92 µM
COc1cc(C(=O)Nc2ccn(C)n2)ccc1OC(F)F | > 35 µM (inactive)
Cc1cccc(S(=O)(=O)N2CCCCN3[C@@H](CO)[C@@H](c4ccc(C#CC(C)C)cc4)[C@@H]3C2)c1 | 18.2 µM
C=CCn1c(=NC(=O)c2cc(Cl)sc2Cl)sc2cc(S(N)(=O)=O)ccc21 | 5.55 µM
COc1ccc(-c2nnn(Cc3nc(N)nc(N4CCOCC4)n3)n2)cc1OC | 1.67 µM
Cc1ccc(NC(=O)c2ccc(COc3ccc4c(c3)CCC4)cc2)c(C)c1 | 1.27 µM
Cc1ccc(-c2ccc(C3[C@@H]4CN(Cc5cccc(F)c5)C[C@H]3N4)cc2)cc1 (stereo partly drawn) | 3.07 µM
COC(=O)c1ccc(OC)c(OC2CCCC2)c1 | 0.254 µM

Structure (SMILES) | AC40
CNc1ccc2ncc(-c3ccc(OC)c(OC)c3)n2n1 | 7.77 µM
CN(C)CCOc1ccc(-c2c(-c3ccsc3)sc3ccccc23)cc1 | 10.9 µM
COc1nc(N2CCOCC2)nc(-n2cccc2)n1 | 0.937 µM
O=c1[nH]c(/C=C/c2ccc(OC(F)F)cc2)nc2c1cnn2-c1ccccc1 | 21.6 µM
COc1ccc(Cn2c(=O)c3[nH]cnc3n(-c3ccccc3C)c2=O)cc1 | 10.4 µM
CCCNC(=O)Cn1sc2nc(C)cc(C)c2c1=O | 6.91 µM
COC(=O)c1cnn(-c2nc(-c3ccccc3)cs2)c1N | > 35 µM (inactive)
COC(=O)c1ccc(C2C(Oc3ccc(OC)cc3)C(=O)N2CCc2ccc(F)cc2)cc1 (stereo not drawn) | 12.6 µM
Clc1ccc(-c2ccnc(Oc3cc(Cl)ccc3Cl)n2)cc1 | 7.53 µM
FC(F)(F)c1cc(CCN2CCNC[C@@H]2Cc2ccccc2)cc(C(F)(F)F)c1 | 17.8 µM
CCOc1ncccc1C(=O)Nc1ncc(C)s1 | > 35 µM (inactive)
C=CCNc1nc(NCc2ccco2)nc(OCC)n1 | > 35 µM (inactive)
COC(=O)C1=C(C)N(Cc2cccc(C(F)(F)F)c2)C(=NCc2ccccc2)NC1c1ccc(Cl)cc1 (stereo not drawn) | 11.6 µM
Fc1ccc(-c2ccc(C3[C@@H]4CN(Cc5cccc(F)c5)C[C@H]3N4)cc2)cc1 (stereo partly drawn) | 5.48 µM
NC1=NC[C@H](CC2CCCCC2)N1CCc1cc(C(F)(F)F)cc(C(F)(F)F)c1 | 16.6 µM
CCC(=O)Nc1ccc(NC(=S)NC(=O)c2oc3ccccc3c2C)cc1 | 5.76 µM
O=c1c2ccccc2sn1-c1ccccc1 | 3.25 µM
COc1ccc(-c2nc(-c3cccnc3)no2)cc1OC | > 35 µM (inactive)
CC(=NC(C)c1ccccc1)c1c(O)[nH]c(=O)[nH]c1=O (stereo not drawn) | 15 µM
COc1ccc(C#Cc2ccc([C@@H]3[C@H](CO)N4CCCCN(Cc5ccccc5F)C[C@@H]34)cc2)cc1 | 6.53 µM
